Reference: PubChem BioAssay (NCI)
Where “and” joins values, the source holds several entries; their conditions need not be identical. Equal values may be shown once.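 Protocol summary: plate cells (96-well), add compound at 5 concentrations, incubate 48 h, interpolate endpoints linearly. GI50 = concentration required for 50% inhibition of growth. Definition used: TGI = concentration required for complete inhibition of growth.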 Where a SMILES comes first, the peptide text is derived from it.

Legend:
Assay in all cases: inhibition of tumour cell growth, NCI panel, 48 h
HCT-15 colon = tested on: HCT-15 colon
UO-31 renal = tested on: UO-31 renal
KM12 colon = tested on: KM12 colon
786-0 renal = tested on: 786-0 renal
SR leukemia = tested on: SR leukemia
HOP-62 NSCLC = tested on: HOP-62 NSCLC
HOP-92 NSCLC = tested on: HOP-92 NSCLC
CAKI-1 renal = tested on: CAKI-1 renal
M14 melanoma = tested on: M14 melanoma
A498 renal = tested on: A498 renal

Row | SMILES | TGI (HCT-15 colon) | TGI (UO-31 renal) | TGI (KM12 colon) | TGI (786-0 renal) [µM] | TGI (SR leukemia) [µM] | TGI (HOP-62 NSCLC) | TGI (HOP-92 NSCLC) | TGI (CAKI-1 renal) | TGI (M14 melanoma) [µM] | TGI (A498 renal) | GI50 (HCT-15 colon) [µM] | GI50 (UO-31 renal) [µM] | GI50 (KM12 colon) [µM] | GI50 (786-0 renal) [µM] | GI50 (SR leukemia) [µM] | GI50 (A498 renal) [µM] | GI50 (HOP-62 NSCLC) [µM] | GI50 (HOP-92 NSCLC) [µM] | GI50 (M14 melanoma) [µM] | GI50 (CAKI-1 renal) [µM]
1 | N=C1N(c2ccccc2)C(=O)C23CCCC2C13N1CCOCC1 (stereo not given) | > 100 µM | > 100 µM | > 100 µM | > 100 | > 100 | > 100 µM | > 100 µM | > 100 µM | > 100 |  |  |  |  |  |  |  |  |  |  | 
2 | CC#CS(=O)(=O)c1ccccc1 | 9.4 µM | 3.58 µM |  | 16.4 |  | 47.2 µM | 6.96 µM | 2.36 µM | 21.4 | 29.3 µM |  |  |  |  |  |  |  |  |  | 
3 | COc1cc(-c2cc(=O)c3ccccc3o2)ccc1N | > 100 µM | > 100 µM | > 100 µM | > 100 |  | > 100 µM | > 100 µM | 77.5 µM | > 100 | > 100 µM |  |  |  |  |  |  |  |  |  | 
4 | COc1ccc(/C=C2\CN(Cc3cn(CCCNc4ccnc5cc(Cl)ccc45)nn3)C/C(=C\c3ccc(OC)c(OC)c3)C2=O)cc1OC | 5.02 µM | 2.88 µM | 1.07 µM | 4.39 | 12 | 4.54 µM | 5.19 µM |  | 9.68 | 2.58 µM | 2.03 | 1.53 | 0.304 | 1.95 | 0.382 | 1.17 | 2.42 | 1.45 | 2.59 | 
5 | CC(=O)NC(CCCCNC(=O)N(CCCl)N=O)C(=O)NCc1ccccc1 (stereo not given) | > 100 µM | > 100 µM | > 100 µM | > 100 | > 100 | > 100 µM | > 100 µM | > 100 µM | > 100 |  |  |  |  |  |  |  |  |  |  | 
6 | O=C1N=C(c2ccccc2)OC1C(=O)c1ccccc1 (stereo not given) | > 100 µM | > 100 µM | > 100 µM | > 100 | > 100 | > 100 µM |  | > 100 µM | > 100 | > 100 µM |  |  |  |  |  |  |  |  |  | 
7 | O=C(/C=C\c1cccc2ccccc12)c1cccs1 | 13.8 µM | 25.6 µM | 17.6 µM | 22.5 |  | 41.5 µM | 25.8 µM | 22.7 µM | 28.3 | 35.6 µM |  |  |  |  |  |  |  |  |  | 
8 | O=C(Nc1ccccc1)Nc1cccc(-n2cc(-c3ccncc3)c(-c3ccc(O)c(Cl)c3)n2)c1 | > 100 µM | 31.8 µM | 10.5 µM | 11.7 | 6.29 | 53.6 µM |  | 14.3 µM | 9.47 | 8.37 µM | 2.84 | 3.43 | 3.3 | 3.24 | 2.35 | 2.5 | 4.93 |  | 3.1 | 2.92
9 | C/C(CC(=O)NNc1ccc([N+](=O)[O-])cc1)=N\Nc1ccc([N+](=O)[O-])cc1 | > 100 µM | > 100 µM | > 100 µM | > 100 |  | 38 µM | 28.3 µM | 32.2 µM | 18.3 | 47.2 µM | 19.7 | 1.88 | 2.12 | 10.4 |  | 7.84 | 14.2 | 7.94 | 2.11 | 1.93
10 | COC(=O)C(C(=O)C(=O)Nc1ccccc1C(C)=O)c1nc2ccc(Cl)cc2[nH]c1=O (stereo not given) | > 100 µM | > 100 µM | > 100 µM | > 100 |  | > 100 µM | > 100 µM | > 100 µM | > 100 | > 100 µM |  |  |  |  |  |  |  |  |  | 
11 | CC(=O)O[C@H]1C(=O)O[C@@H]2C[C@H]3C(C)=CC(=O)[C@@H](O)[C@]3(C)[C@H]3[C@@]4(O)OC[C@]32[C@@H]1[C@@H](C)[C@H]4O | 0.738 µM and 1.03 µM | 1.21 µM and 4.45 µM | 0.317 µM and 0.306 µM | 0.14 |  | 0.07 µM and 0.314 µM | 0.216 µM and 0.124 µM | 2.36 µM and 2.13 µM | 0.0838 | 1.19 µM and 0.385 µM | 0.0399 | 0.0958 | 0.0178 |  |  | 0.187 | < 0.0122 | 0.0288 |  | 0.0752
12 | C[C@@H](CO)OCOCc1ccccc1 | > 100 µM | > 100 µM | > 100 µM | > 100 |  | > 100 µM | > 100 µM | > 100 µM | > 100 | > 100 µM |  |  |  |  |  |  |  |  |  | 
13 | COC(=O)/C(C#N)=C1\CCC(O)N1C (stereo not given) |  | > 100 µM | > 100 µM | > 100 |  | > 100 µM |  | > 100 µM | > 100 |  |  |  |  |  |  |  |  |  |  | 
14 | Nc1ncnc(NC2C=C(CO)C(O)C2O)c1[N+](=O)[O-] (stereo not given) | > 100 µM | > 100 µM | > 100 µM | > 100 | > 100 | > 100 µM |  | > 100 µM | > 100 | > 100 µM |  |  |  |  |  |  |  |  |  | 
15 | COC(=O)C1=CN=C(C(=O)OC)NN1 | > 100 µM | > 100 µM | > 100 µM | > 100 | > 100 | > 100 µM | > 100 µM | > 100 µM | > 100 |  |  |  |  |  |  |  |  |  |  | 
16 | Cc1c(C(=O)CC(=O)C(=O)Nc2ccc(Cl)c(Cl)c2)[n+](=O)c2ccccc2n1[O-] | 48.2 µM | > 100 µM | > 100 µM | 69 |  | > 100 µM | > 100 µM | > 100 µM | 36.5 | > 100 µM |  |  |  |  |  |  |  |  |  | 
17 | COc1ccc(C(c2ccc(C(C)C)cc(=O)c2O)c2ccc3cccnc3c2O)cc1 (stereo not given) | 14.5 µM | 1.78 µM | 18.7 µM | 5.61 | 15.9 | 2.29 µM | 0.898 µM | 5.15 µM | 3.06 |  |  |  |  |  |  |  |  |  |  | 
18 | CC(C)CC(NC(=O)C(CC(C)C)NC(=O)C(Cc1cnc[nH]1)NC(=O)C(C)NC(=O)C(NC(=O)C(C)NC(=O)C(Cc1c[nH]c2ccccc12)NC(=O)C(CCC(=O)O)NC(=O)C(N)Cc1ccccc1)C(C)C)C(N)=O (stereo not given) (H-FEWAVAHLL-NH2; configuration not given here) | > 100 µM | > 100 µM | > 100 µM | > 100 | > 100 | > 100 µM |  | > 100 µM | > 100 | > 100 µM | > 100 | 70.9 | > 100 | > 100 | > 100 | > 100 | > 100 |  | > 100 | > 100
19 | CC(C)NCC(O)COC(=O)c1cccs1 (stereo not given) | > 100 µM | > 100 µM | > 100 µM | > 100 |  | > 100 µM | > 100 µM | > 100 µM | > 100 |  |  |  |  |  |  |  |  |  |  | 
20 | O=C1C(=O)N(C(=O)c2ccc(Cl)c(Cl)c2)c2ccc(Cl)cc21 |  | > 100 µM | > 100 µM | > 100 | > 100 |  |  |  | > 100 | 63.8 µM |  |  |  |  |  |  |  |  |  | 
